In data set [1] the test system is human skin (surgical waste). Nature of the data set: Ex vivo human skin assay, qRT-PCR. The data set is classed as cell-based. The settings on record: 24 hrs; 5 uM ICG-001, 5 uM methylated ICG-001, 1 ug/ml RA. As for the experimental part: Methods. Ex Vivo human skin assay culture conditions were based upon a paper by Varani J et al Experimental and Molecular Pathology, 2004.
Briefly, human skin (surgical waste from plastic surgery procedures) was obtained and the subcutaneous layer of fat was trimmed manually with a scalpel. The skin was then cut into small fragments about 2 mm square and placed in 6 well plates. 1 ml of keratinocyte culture medium (Gibco 10724-011) with 1% P/S (penstrep antibiotic) was added to each well. The epidermis, bathed in media was placed facing up. On the next day (overnight culture in the media above), the skin fragments were transferred to fresh wells that contained either 5 uM ICG-001, 5-uM methylated ICG-001 or 1 ug/ml of retinoic acid (RA). After 24 hrs, skin samples in culture were removed for RNA isolation and qRT-PCR analysis of genes of interest (e.g., elastin (a gene involved in skin appearance and pliability (e.g., wrinkling)) and aquaporin 1, which is involved with hydration.
Background: In qPCR the cycle at which signal appears reflects the starting amount.

Data set [2] deals with imatinib resistant (IR) CML cells / leukemia stem cells. The data set is described as follows: Imatinib resistant CML, in vitro and NOD/SCID/IL2rγ−/− mouse model of engrafted human CML. The data set is classed as in vivo. The text has this:
Chronic myelogenous leukemia (CML). Despite the stunning clinical success achieved to date in chronic phase CML patients treated with the BCR-ABL antagonist Gleevec/Imatinib (IM), responses in advanced phase patients are often short-lived, and patients invariably undergo disease progression. Furthermore, resistance to IM develops in 2% to 4% of patients annually and IM dose escalation is generally not sufficient to control the disease. Several mechanisms that contribute to tyrosine kinase inhibitor (TKI) resistance have been proposed including the insensitivity of quiescent CML stem cells to TKIs due to low expression of BCR-ABL and the emergence of drug resistant leukemic clones associated with increased nuclear catenin levels, a hallmark of increased Wnt/catenin transcription. […] Epigenetic silencing of negative regulators of the Wnt signaling cascade is also frequently associated with leukemias, including CML. […] The mice treated with one course (28 days from day 13-41 after leukemia engraftment) of CBP/catenin antagonist plus bcr-abl antagonist are essentially cured of leukemia and live as long (approximately 2 years) as their littermates that were never engrafted with leukemia.

The subject of a further data set is ER alpha receptor. Nature of the data set: ER alpha re-expression in triple negative breast cancer. In kind it is cell-based.
Data set [3] relates to NOD/SCIDIL2R gamma−/− mice. Nature of the data set: Leukemia mouse model, hair growth and wound healing. The data set is classed as in vivo. The note with it: 50 mg/kg/d with VDL versus VDL only. How it is done: NOD/SCIDIL2R gamma−/− mice were shaved and sublethally irradiated prior intravenous injection of 50,000 cells per animal. Leukemic animals were treated with a combination of intraperitoneally administered vincristine/dexamethasone/L-Aspariginase (VDL) and ICG-001 (50 mg/kg/d), which was delivered via subcutaneous osmotic pumps to ensure stable plasma levels, with VDL only as a control for 20 days. The animals were checked periodically for survival, hair growth, and wound healing.

In data set [4] the test system is p300/beta-catenin interaction. Nature of the data set: Disruption of the p300/beta-catenin interaction. In kind it is biochemical. The text has this:
(§1) Applicant next mapped the binding domains between CBP and beta-catenin, as well as between p300 and beta-catenin. The C-terminal trans-activating region of beta-catenin (647-781) interacted with the same 1-111 amino acids of both CBP and p300 (23). However, only the interaction between CBP and beta-catenin was disrupted by ICG-001, and not the p300/beta-catenin interaction.
IQ-1. In addition to ICG-001, a screen of a large chemical library for maintenance of pluripotency in mES cells led to the identification of another compound, termed IQ-1 (FIG. 2b). […] I-Q-1 diminishes the interaction between p300 and beta-catenin thereby increasing the CBP/beta-catenin interaction (24).

Data set [5] has as its target CBP/beta-catenin interaction (Homo sapiens, UniProt Q92793). Nature of the data set: Disruption of the CBP/beta-catenin interaction. The data set is classed as biochemical.
Source text: as §1

Data set [6] relates to Colorectal cancer cells. Nature of the data set: Survivin expression and cytotoxicity in colorectal cancer cells. In kind it is cell-based. The text has this:
Cancer. The importance of Wnt signaling in colorectal cancer is undisputed. Applicant's investigation on the therapeutic utility of ICG-001 therefore quite naturally began with colon cancer.

For data set [7], the system named is Colorectal cancer cells. The data set is described as follows: ChIP and message of Wnt/beta-catenin target genes in colorectal cancer cells. In kind it is cell-based. How it is done:
The effects of CBP/catenin antagonism on Wnt target genes are highly promoter specific. Colorectal cancer cells were treated with ICG-001, thereby disrupting the CBP/catenin interaction, and then examined for coactivator occupancy at the promoter regions of several Wnt/beta-catenin regulated target genes using a Chromatin Immuno-precipitation Assay (ChIP), a technique that allows one to determine what proteins are associated with a particular promoter. […] Furthermore, there are other Wnt/catenin-regulated genes that selectively utilize p300 for transcriptional coactivation. An interesting example of this differential coactivator usage concerns the expression of the gene EphB2, a known Wnt/TCF/beta-catenin target gene. As almost 90% of colon cancers have high aberrant Wnt/TCF/beta-catenin activation, it would follow that EpHB2 expression would be increased with colon cancer disease progression. This, however, is not the case as EphB2 expression is generally lost in late stage colorectal cancers (34). Furthermore, disruption of EphB2 in the Min mouse, which carries a defective APC tumor suppressor gene, results in highly invasive carcinomas as opposed to the normal adenomas.

Molecules are shown by their SMILES. “Also recorded” adds a separate entry of the source.

CBP/beta-catenin interaction, sequence (Q92793 whole entry): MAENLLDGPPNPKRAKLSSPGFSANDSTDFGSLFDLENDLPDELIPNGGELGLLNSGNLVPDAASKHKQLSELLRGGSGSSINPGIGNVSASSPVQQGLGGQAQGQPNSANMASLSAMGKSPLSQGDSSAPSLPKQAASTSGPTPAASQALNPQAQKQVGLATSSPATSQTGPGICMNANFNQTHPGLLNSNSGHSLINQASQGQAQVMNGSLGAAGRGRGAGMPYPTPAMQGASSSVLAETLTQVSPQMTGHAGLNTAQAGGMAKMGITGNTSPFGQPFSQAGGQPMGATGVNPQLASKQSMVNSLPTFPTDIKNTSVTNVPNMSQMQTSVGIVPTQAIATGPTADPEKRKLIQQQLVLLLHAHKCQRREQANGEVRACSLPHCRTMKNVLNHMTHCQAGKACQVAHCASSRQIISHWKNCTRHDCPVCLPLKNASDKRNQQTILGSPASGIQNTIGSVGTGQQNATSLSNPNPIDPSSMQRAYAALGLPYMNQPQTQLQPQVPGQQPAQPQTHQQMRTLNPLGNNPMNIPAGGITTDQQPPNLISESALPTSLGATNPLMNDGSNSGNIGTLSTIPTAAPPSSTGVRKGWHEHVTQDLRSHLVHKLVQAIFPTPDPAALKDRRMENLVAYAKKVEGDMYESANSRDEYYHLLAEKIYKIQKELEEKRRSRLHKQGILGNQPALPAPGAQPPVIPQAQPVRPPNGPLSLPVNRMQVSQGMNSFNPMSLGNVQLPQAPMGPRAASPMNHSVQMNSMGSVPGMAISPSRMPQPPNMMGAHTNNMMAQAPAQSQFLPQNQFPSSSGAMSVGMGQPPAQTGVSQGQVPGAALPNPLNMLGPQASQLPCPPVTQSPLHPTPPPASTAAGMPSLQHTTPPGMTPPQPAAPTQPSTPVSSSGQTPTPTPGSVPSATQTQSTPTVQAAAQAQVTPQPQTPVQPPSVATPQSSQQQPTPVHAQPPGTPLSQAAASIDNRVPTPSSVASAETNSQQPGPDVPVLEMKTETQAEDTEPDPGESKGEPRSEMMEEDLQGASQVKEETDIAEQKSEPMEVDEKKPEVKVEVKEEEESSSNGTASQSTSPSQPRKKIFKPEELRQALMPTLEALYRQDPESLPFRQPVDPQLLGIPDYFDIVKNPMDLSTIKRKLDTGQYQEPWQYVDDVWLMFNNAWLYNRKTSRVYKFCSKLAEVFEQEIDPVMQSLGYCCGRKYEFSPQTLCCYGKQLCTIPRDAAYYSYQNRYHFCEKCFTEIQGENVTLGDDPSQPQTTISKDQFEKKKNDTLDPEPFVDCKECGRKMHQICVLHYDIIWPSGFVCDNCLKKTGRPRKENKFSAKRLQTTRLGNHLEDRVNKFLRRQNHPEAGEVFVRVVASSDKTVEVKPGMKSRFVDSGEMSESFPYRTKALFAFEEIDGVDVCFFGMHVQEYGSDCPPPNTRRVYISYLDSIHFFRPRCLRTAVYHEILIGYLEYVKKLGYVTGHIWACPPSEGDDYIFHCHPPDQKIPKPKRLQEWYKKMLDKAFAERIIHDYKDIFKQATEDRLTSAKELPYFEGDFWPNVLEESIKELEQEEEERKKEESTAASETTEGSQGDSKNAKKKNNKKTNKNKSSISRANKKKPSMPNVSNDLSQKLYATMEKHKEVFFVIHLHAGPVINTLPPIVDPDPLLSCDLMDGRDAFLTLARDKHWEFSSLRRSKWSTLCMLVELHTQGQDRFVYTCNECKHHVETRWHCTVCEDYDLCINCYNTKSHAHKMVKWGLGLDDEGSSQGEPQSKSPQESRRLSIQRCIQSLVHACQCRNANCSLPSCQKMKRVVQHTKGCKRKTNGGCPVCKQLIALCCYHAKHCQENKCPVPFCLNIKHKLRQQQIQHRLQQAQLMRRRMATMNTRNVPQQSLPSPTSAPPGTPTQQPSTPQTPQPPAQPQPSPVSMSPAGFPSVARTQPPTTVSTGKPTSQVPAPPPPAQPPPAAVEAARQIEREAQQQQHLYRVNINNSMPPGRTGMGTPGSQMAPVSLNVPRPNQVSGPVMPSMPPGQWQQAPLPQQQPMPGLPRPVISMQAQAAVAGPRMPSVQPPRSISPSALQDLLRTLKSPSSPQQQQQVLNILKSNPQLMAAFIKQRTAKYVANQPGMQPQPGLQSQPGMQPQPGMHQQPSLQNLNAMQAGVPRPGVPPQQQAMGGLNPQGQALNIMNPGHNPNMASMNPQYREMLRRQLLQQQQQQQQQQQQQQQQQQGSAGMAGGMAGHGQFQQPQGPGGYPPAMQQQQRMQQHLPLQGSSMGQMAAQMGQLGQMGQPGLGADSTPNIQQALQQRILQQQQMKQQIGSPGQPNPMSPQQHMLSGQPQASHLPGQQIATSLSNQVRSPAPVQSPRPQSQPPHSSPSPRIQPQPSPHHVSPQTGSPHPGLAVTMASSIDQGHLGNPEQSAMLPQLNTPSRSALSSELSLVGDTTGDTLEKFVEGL

For the molecule `O=C1[C@H](Cc2ccc(O)cc2)N2C(=O)CCN(C(=O)NCc3ccccc3)[C@H]2CN1Cc1cccc2ccccc12` [ICG-001], in data set [1], the “expression of aquaporin 1” value was “increase” and the expression of elastin entry is given as “increase”. Besides, the “drug resistant leukemia stem cells” value in data set [2] (NOD/SCID/IL2rγ−/− mice engrafted with human CML) is reported as “can be eliminated”. The “differentiation of the IR cells” value in data set [2] (in vitro and in vivo) is reported as “induces the differentiation”. The “effects on normal endogenous hematopoiesis” value in data set [2] (mouse, in vivo) is recorded as “without deleterious effects”. In the data set on ER alpha receptor, the “expression of the ER alpha receptor” value is on record as “re-expression”. Moreover, in data set [3], the “healing of wounds from pump insertion” value was “had substantial improved; also recorded: heal quicker”. Further, the “hair growth of shaved area” value in data set [3] (within two weeks) was “had regrown their hair; also recorded: substantial hair growth”. Also, the p300/beta-catenin interaction entry in data set [4] is given as “without affecting”. Further, the “interaction between CBP and beta-catenin” value in data set [5] was “disrupted”. Further, the survivin expression result in the data set on Colorectal cancer cells [6] is reported as “down-regulated”. The cytotoxicity result in the data set on Colorectal cancer cells [6] (colorectal cancer cells versus normal colonic epithelial cells) was “selective cytotoxicity”. Further, in the data set with Colorectal cancer cells [7] (colon cancer cells), the “expression of EphB2” value is recorded as “increasing the expression”. Further, in the data set on Colorectal cancer cells [7] (colorectal cancer cells), the c-myc message entry is reported as “slight increase in message”, the “cyclin D1 message” value was “decrease in message” and the survivin message entry was “decreased message”.

Values taken from patent US10092568B2, “CBP/Catenin antagonists for enhancing asymmetric division of somatic stem cells” (University of Southern California, priority 2010, dated 2018).
